Reference: ChEMBL document CHEMBL1139973, “Synthesis and structure-activity relationships of taxuyunnanine C derivatives as multidrug resistance modulator in MDR cancer cells” (Bioorg Med Chem Lett, 2007)

Columns and labels:
A2780 [1] = test: Growth inhibition of human A2780 cells; type: functional, cell-based
[2] = Growth inhibition of multidrug-resistant human 2780AD cells; type: functional, cell-based; conditions: A2780 ADR
[3] = molecular target: T1, ATP-dependent translocase ABCB1 (Homo sapiens, UniProt P08183); test: Inhibition of Pgp in multidrug-resistant human 2780AD cells assessed as vincristine accumulation at 10 ug/mL relative to verapamil; type: cell-based; set-up: scale not given: the % may be the effect or the level left; conditions: a2780 adr
T1 sequence (P08183 whole entry): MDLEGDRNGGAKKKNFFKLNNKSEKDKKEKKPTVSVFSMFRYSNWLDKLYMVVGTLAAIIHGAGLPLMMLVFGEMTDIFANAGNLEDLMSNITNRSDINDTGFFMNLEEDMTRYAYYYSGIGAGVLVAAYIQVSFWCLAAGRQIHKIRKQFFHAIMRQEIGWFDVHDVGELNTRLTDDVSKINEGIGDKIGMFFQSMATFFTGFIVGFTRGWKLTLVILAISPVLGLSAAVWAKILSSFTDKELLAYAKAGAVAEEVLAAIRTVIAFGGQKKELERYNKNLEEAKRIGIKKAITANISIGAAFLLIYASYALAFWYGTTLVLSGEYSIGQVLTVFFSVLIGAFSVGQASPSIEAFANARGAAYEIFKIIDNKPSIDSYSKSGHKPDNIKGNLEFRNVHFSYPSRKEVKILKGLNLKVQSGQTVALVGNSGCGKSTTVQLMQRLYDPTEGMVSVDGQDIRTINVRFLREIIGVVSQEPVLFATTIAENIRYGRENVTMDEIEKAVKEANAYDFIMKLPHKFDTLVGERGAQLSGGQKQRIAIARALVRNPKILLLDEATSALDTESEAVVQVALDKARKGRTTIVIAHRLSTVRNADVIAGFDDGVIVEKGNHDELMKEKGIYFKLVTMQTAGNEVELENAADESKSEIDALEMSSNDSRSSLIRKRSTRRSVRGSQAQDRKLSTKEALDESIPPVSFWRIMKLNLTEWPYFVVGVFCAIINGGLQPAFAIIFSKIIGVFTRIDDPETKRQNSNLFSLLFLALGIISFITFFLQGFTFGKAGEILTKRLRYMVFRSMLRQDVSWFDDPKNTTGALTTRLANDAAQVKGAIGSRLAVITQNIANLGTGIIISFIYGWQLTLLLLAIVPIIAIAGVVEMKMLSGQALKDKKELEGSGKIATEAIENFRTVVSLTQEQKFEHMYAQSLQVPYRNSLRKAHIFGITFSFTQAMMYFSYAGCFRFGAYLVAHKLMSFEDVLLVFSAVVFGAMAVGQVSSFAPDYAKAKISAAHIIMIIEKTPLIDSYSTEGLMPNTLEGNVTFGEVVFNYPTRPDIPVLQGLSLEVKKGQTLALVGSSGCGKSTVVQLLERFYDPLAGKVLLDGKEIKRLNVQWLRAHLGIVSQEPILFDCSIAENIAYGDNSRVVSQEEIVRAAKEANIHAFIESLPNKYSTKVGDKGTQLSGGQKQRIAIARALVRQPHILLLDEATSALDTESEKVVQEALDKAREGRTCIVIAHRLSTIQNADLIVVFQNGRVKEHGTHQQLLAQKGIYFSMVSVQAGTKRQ

A2780 [4] = test: Cytotoxicity against human A2780 cells assessed as cell viability at 0.2 uM; type: functional; conditions: read-out: Activity
[5] = molecular target: T1, ATP-dependent translocase ABCB1; test: Inhibition of Pgp in multidrug-resistant human 2780AD cells assessed as vincristine accumulation at 10 ug/mL relative to control; type: cell-based; set-up: scale not given: the % may be the effect or the level left; conditions: a2780 adr
[6] = molecular target: T1, ATP-dependent translocase ABCB1; test: Inhibition of Pgp in multidrug-resistant human 2780AD cells assessed as vincristine accumulation at 1.0 ug/mL relative to verapamil; type: cell-based; set-up: scale not given: the % may be the effect or the level left; conditions: a2780 adr
[7] = molecular target: T1, ATP-dependent translocase ABCB1; test: Inhibition of Pgp in multidrug-resistant human 2780AD cells assessed as vincristine accumulation at 1.0 ug/mL relative to control; type: cell-based; set-up: scale not given: the % may be the effect or the level left; conditions: a2780 adr
[8] = molecular target: T1, ATP-dependent translocase ABCB1; test: Inhibition of Pgp in multidrug-resistant human 2780AD cells assessed as vincristine accumulation at 0.1 ug/mL relative to control; type: cell-based; set-up: scale not given: the % may be the effect or the level left; conditions: a2780 adr
HepG2 = test: Growth inhibition of human HepG2 cells; type: functional, cell-based
WI-38 VA13 = test: Growth inhibition of human VA13 cells; type: functional, cell-based
A2780 [9] = test: Cytotoxicity against human A2780 cells assessed as cell viability at 2 uM; type: functional; conditions: read-out: Activity
[10] = Cytotoxicity against multidrug-resistant human 2780AD cells assessed as cell viability at 0.2 uM; type: functional; conditions: A2780 ADR, read-out: Activity
[11] = molecular target: T1, ATP-dependent translocase ABCB1; test: Inhibition of Pgp in multidrug-resistant human 2780AD cells assessed as calcein accumulation at 25 ug/mL relative to control; type: cell-based; set-up: scale not given: the % may be the effect or the level left; conditions: a2780 adr
[12] = molecular target: T1, ATP-dependent translocase ABCB1; test: Inhibition of Pgp in multidrug-resistant human 2780AD cells assessed as calcein accumulation at 2.5 ug/mL relative to control; type: cell-based; set-up: scale not given: the % may be the effect or the level left; conditions: a2780 adr
[13] = molecular target: T1, ATP-dependent translocase ABCB1; test: Inhibition of Pgp in multidrug-resistant human 2780AD cells assessed as vincristine accumulation at 0.1 ug/mL relative to verapamil; type: cell-based; set-up: scale not given: the % may be the effect or the level left; conditions: a2780 adr
[14] = Growth inhibition of human WI38 cells; type: cell-based; conditions: WI-38
[15] = Cytotoxicity against multidrug-resistant human 2780AD cells assessed as cell viability at 10 uM; type: functional; conditions: A2780 ADR, read-out: Activity
[16] = molecular target: T1, ATP-dependent translocase ABCB1; test: Inhibition of Pgp in multidrug-resistant human 2780AD cells assessed as calcein accumulation at 0.25 ug/mL relative to control; type: cell-based; set-up: scale not given: the % may be the effect or the level left; conditions: a2780 adr
[17] = Cytotoxicity against multidrug-resistant human 2780AD cells assessed as cell viability at 2 uM; type: functional; conditions: A2780 ADR, read-out: Activity
A2780 [18] = test: Cytotoxicity against human A2780 cells assessed as cell viability at 10 uM; type: functional; conditions: read-out: Activity

Row | IC50 (A2780 [1]) [µM] | Activity [3] [%] | Activity [5] [%] | Activity [6] [%] | Activity [7] [%] | Activity [8] [%] | IC50 (HepG2) [µM] | Activity [11] [%] | Activity [12] [%] | Activity [13] [%] | Activity [16] [%] | Compound | IC50 [2] [µM] | viability at 0.2 µM (A2780 [4]) [%] | IC50 (WI-38 VA13) [µM] | viability at 2 µM (A2780 [9]) [%] | viability at 0.2 µM [10] [%] | IC50 [14] [µM] | viability at 10 µM [15] [%] | viability at 2 µM [17] [%] | viability at 10 µM (A2780 [18]) [%]
1 | 0.0031 | – | – | – | – | – | – | – | – | – | – | CC[C@]1(O)C[C@H]2CN(CCc3c([nH]c4ccccc34)[C@@](C(=O)OC)(c3cc4c(cc3OC)N(C=O)[C@H]3[C@@](O)(C(=O)OC)[C@H](OC(C)=O)[C@]5(CC)C=CCN6CC[C@]43[C@@H]65)C2)C1 [VINCRISTINE] | 0.311 | – | – | – | – | – | – | – | –
2 | – | 27 | 122 | 49 | 92 | 91 | > 147 | 80 | 80 | 83 | 83 | C=C1[C@@H](OC(C)=O)CC[C@@]2(C)C[C@H](OC(=O)/C=C/c3ccccc3)C3=C(C)C[C@H](OC(=O)/C=C/c4ccccc4)[C@@H]([C@@H](OC(C)=O)[C@H]12)C3(C)C | – | – | > 147 | – | – | > 147 | – | – | –
3 | 0.0057 | – | – | – | – | – | – | – | – | – | – | COc1cccc2c1C(=O)c1c(O)c3c(c(O)c1C2=O)C[C@@](O)(C(=O)CO)C[C@@H]3O[C@H]1C[C@H](N)[C@H](O)[C@H](C)O1 [DOXORUBICIN] | 0.298 | – | – | – | – | – | – | – | –
4 | – | 51 | 229 | 64 | 119 | 92 | 108 | 111 | 98 | 84 | 103 | C=C1[C@@H](OC(C)=O)CC[C@@]2(C)C[C@H](O)C3=C(C)C[C@H](OC(C)=O)[C@@H]([C@@H](OC(C)=O)[C@H]12)C3(C)C | – | – | 12.6 | – | – | 105 | – | – | –

Further lines, the molecule ahead of its results:

Row | Compound | IC50 (A2780 [1]) [µM] | Activity [3] [%] | Activity [5] [%] | Activity [6] [%] | Activity [7] [%] | Activity [8] [%] | IC50 (HepG2) [µM] | Activity [11] [%] | Activity [12] [%] | Activity [13] [%] | Activity [16] [%] | IC50 [2] [µM] | viability at 0.2 µM (A2780 [4]) [%] | IC50 (WI-38 VA13) [µM] | viability at 2 µM (A2780 [9]) [%] | viability at 0.2 µM [10] [%] | IC50 [14] [µM] | viability at 10 µM [15] [%] | viability at 2 µM [17] [%] | viability at 10 µM (A2780 [18]) [%]
5 | C=C1[C@@H](OC(C)=O)CC[C@@]2(C)C[C@H](O)C3=C(C)C[C@H](OC(=O)/C=C/c4ccccc4)[C@@H]([C@@H](OC(C)=O)[C@H]12)C3(C)C | 6.1 | 116 | 527 | 146 | 272 | 121 | 15.7 | 190 | 132 | 111 | 107 | 8 | 89 | 37.4 | 74 | 105 | 13.5 | 38 | 86 | 27
6 | C=C1[C@@H](OC(C)=O)CC[C@@]2(C)C[C@H](OC(C)=O)C3=C(C)C[C@H](O)[C@@H]([C@@H](OC(C)=O)[C@H]12)C3(C)C | – | 53 | 242 | 79 | 147 | 102 | 216 | 148 | 86 | 94 | 104 | – | 97 | 80 | 95 | 101 | 133 | 77 | 96 | 20
7 | C=C1[C@@H](OC(C)=O)CC[C@@]2(C)C[C@H](OC(=O)/C=C/c3ccccc3)C3=C(C)C[C@H](OC(C)=O)[C@@H]([C@@H](OC(C)=O)[C@H]12)C3(C)C | – | 81 | 451 | 118 | 209 | 132 | 106 | 126 | 123 | 130 | 92 | – | – | > 169 | – | – | > 169 | – | – | –
8 | CC(=O)O[C@H]1C(=O)[C@@]2(C)[C@H]([C@H](OC(=O)c3ccccc3)[C@]3(O)C[C@H](OC(=O)[C@H](O)[C@@H](NC(=O)c4ccccc4)c4ccccc4)C(C)=C1C3(C)C)[C@]1(OC(C)=O)CO[C@@H]1C[C@@H]2O [PACLITAXEL] | – | – | – | – | – | – | – | – | – | – | – | 183 | – | – | – | – | – | – | – | –
9 | C=C1[C@@H](OC(C)=O)CC[C@@]2(C)C[C@H](OC(C)=O)C3=C(C)C[C@H](OC(=O)/C=C/c4ccccc4)[C@@H]([C@@H](OC(C)=O)[C@H]12)C3(C)C | – | 62 | 280 | 75 | 140 | 95 | > 169 | 125 | 126 | 87 | 123 | – | – | > 169 | – | – | 154 | – | – | –
